The structures appear in SMILES notation.

One experiment deals with T1, M-phase inducer phosphatase 1 (Homo sapiens, UniProt P30304).
T1 sequence (P30304 whole entry): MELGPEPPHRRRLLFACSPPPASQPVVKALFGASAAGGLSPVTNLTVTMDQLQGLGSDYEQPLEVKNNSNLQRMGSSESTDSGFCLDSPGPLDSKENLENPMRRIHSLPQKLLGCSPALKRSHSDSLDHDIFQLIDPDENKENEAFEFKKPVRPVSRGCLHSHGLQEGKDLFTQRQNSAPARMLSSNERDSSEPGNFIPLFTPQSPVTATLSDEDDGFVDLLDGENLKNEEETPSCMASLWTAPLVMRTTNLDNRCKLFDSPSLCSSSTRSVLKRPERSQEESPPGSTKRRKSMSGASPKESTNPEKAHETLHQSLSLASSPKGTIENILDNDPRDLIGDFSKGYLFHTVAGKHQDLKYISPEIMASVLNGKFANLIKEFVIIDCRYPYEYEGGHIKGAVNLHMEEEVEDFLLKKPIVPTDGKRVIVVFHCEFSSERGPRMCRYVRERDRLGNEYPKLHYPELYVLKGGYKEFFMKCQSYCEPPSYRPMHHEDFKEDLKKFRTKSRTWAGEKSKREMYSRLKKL
Kind of experiment: Inhibition of N-terminal 6xHis-tagged human Cdc25A (336-523) catalytic domain expressed in Escherichia coli after 20 mins by fluorescent plate reader assay.
Usually IC50 stands for the concentration needed to halve the response being measured. Lower therefore signals greater potency in that assay. Regarding `Oc1nc(Nc2ccc(Cl)cc2Cl)sc1/C=C1\C=Nc2ccccc21`, 12.6 µM corresponded to half-maximal inhibition (IC50).
On to `Cc1ccc(/N=C2N=C(O)/C(=C/C=C/c3ccco3)S\2)cc1C`, for which half-maximal inhibition (IC50) required 7.1 µM.
On the same count and under the same terms, next, `O=C1N=C(Nc2ccc(F)cc2)S/C1=C\c1cccs1`: 30.7 µM; `O=C1N=C(Nc2cc(Cl)cc(Cl)c2)S/C1=C\C=C\c1ccco1`: 4.1 µM.
Consider `O=C1N=C(Nc2ccc(Cl)cc2Cl)S/C1=C\C=C\c1ccco1`, for which it took 6.7 µM to reach half-maximal inhibition (IC50).
Regarding `COc1ccc(-n2c(SCC(=O)c3ccc(O)c(O)c3)nnc2-c2ccc(C)cc2)cc1`, the concentration for half-maximal inhibition (IC50) is 9.2 µM.
`O=C(CSc1nnc(-c2ccc(Cl)cc2)n1-c1ccccc1)c1ccc(O)c(O)c1` gave an IC50 of 11.5 µM.
With `O=C1N=C(Nc2cccc(Br)c2)S/C1=C\C=C\c1ccco1`, the half-inhibitory concentration (IC50) worked out at 7.7 µM.
Same read-out and setting: next, `Cn1c(SCC(=O)c2ccc([N+](=O)[O-])cc2)nnc1-c1cccc(NC(=O)c2ccccc2F)c1`: 19 µM.
On the same count and under the same terms, as for `CC(=C/c1ccccc1)/C=C1\SC(Nc2cccc(Cl)c2)=NC1=O`, the figure is 12.8 µM; as for `CC(=C/c1ccccc1)/C=C1\SC(Nc2ccc(C)c(C)c2)=NC1=O`, 8.1 µM.
Still for that read-out and setting: next, `O=C1N=C(Nc2cccc(O)c2)S/C1=C\c1cccs1`: 7.8 µM; `CC(=C/c1ccccc1)/C=C1\SC(Nc2ccccc2Cl)=NC1=O`: 10.3 µM.
The compound `Cc1ccc(-c2nnc(SCC(=O)c3ccc(O)c(O)c3)n2Cc2ccco2)cc1` registered an IC50 of 4.7 µM.
The same measure, in the same setting: as for `CC(=C/c1ccccc1)/C=C1\SC(Nc2cc(Cl)cc(Cl)c2)=NC1=O`, the figure is 5.1 µM; as for `O=C1N=C(Nc2ccc(Cl)cc2)S/C1=C\c1cccs1`, 11.1 µM.
The same measure, in the same setting: next, `COc1ccc(-c2nnc(SCC(=O)c3ccc(O)c(O)c3)n2-c2ccccc2)cc1`: 6 µM; `O=C1N=C(Nc2cc(Cl)cc(Cl)c2)S/C1=C\c1c[nH]c2ccccc12`: 12.7 µM; `Cn1c(SCC(=O)c2ccc(-c3ccccc3)cc2)nnc1-c1ccncc1`: 13.1 µM.
Same read-out and setting: next, `Cn1c(SCC(=O)c2ccc([N+](=O)[O-])cc2)nnc1-c1cccc(Cl)c1`: 11.1 µM.
`Cc1ccc(-c2nnc(SCC(=O)c3ccc(O)c(O)c3)n2-c2ccccc2)cc1` displayed an IC50 of 7.1 µM.
`Cn1cccc1/C=C1\SC(Nc2ccc(F)cc2)=NC1=O` showed an IC50 of 14.3 µM.
Still for that read-out and setting: next, `Cn1c(SCC(=O)c2ccc(-c3ccccc3)cc2)nnc1-c1ccco1`: 13 µM; `O=C1N=C(Nc2ccccc2Cl)S/C1=C\C=C\c1ccco1`: 10.1 µM; `CCn1c(SCC(=O)c2ccc(Cl)cc2)nnc1-c1cccnc1`: 17.2 µM.
Same read-out and setting: next, `C=Cn1c(SCC(=O)c2ccc(Cl)cc2)nnc1-c1ccco1`: 14.5 µM; `Cn1cccc1/C=C1\SC(Nc2ccc(Cl)cc2)=NC1=O`: 15.4 µM.
Still for that read-out and setting: next, `O=C1N=C(Nc2cccc(Cl)c2)S/C1=C\C=C\c1ccco1`: 9.1 µM; `CC(=C/c1ccccc1)/C=C1\SC(Nc2ccc(Br)cc2)=NC1=O`: 17.3 µM.
In the case of `O=C1N=C(Nc2cccc(Cl)c2Cl)S/C1=C\C=C\c1ccco1`, inhibition was half-maximal at 6.2 µM (IC50).

The next experiment deals with T2, M-phase inducer phosphatase 2 (Homo sapiens, UniProt P30305).
T2 sequence (P30305 whole entry): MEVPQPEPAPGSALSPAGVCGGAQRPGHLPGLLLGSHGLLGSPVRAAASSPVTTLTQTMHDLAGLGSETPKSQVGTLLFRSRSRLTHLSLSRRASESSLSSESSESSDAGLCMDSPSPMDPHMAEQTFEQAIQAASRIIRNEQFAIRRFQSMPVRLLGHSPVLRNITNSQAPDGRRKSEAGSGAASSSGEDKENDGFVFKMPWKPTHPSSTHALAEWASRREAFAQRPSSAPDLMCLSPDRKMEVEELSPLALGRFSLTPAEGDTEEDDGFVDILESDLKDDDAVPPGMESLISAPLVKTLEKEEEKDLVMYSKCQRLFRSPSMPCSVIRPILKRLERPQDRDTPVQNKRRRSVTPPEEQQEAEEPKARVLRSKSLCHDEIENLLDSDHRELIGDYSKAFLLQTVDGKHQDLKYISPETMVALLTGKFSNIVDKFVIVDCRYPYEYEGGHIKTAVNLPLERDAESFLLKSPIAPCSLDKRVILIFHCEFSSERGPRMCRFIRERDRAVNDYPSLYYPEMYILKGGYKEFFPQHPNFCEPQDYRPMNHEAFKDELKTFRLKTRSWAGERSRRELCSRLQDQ
Kind of experiment: Inhibition of N-terminal 6xHis-tagged (378-566) catalytic domain of Cdc25B expressed in Escherichia coli after 20 mins by fluorescent plate reader assay.
For the compound `Oc1nc(Nc2ccc(Cl)cc2Cl)sc1/C=C1\C=Nc2ccccc21`, the half-maximal inhibitory concentration (IC50) came to 2.6 µM.
As for `Cc1ccc(/N=C2N=C(O)/C(=C/C=C/c3ccco3)S\2)cc1C`, the midpoint of inhibition, the IC50, lay at 1.8 µM.
`O=C1N=C(Nc2ccc(F)cc2)S/C1=C\c1cccs1` yielded a half-inhibitory concentration (IC50) of 8.9 µM.
Same read-out and setting: next, `O=C1N=C(Nc2cc(Cl)cc(Cl)c2)S/C1=C\C=C\c1ccco1`: 2.3 µM; `O=C1N=C(Nc2ccc(Cl)cc2Cl)S/C1=C\C=C\c1ccco1`: 4.5 µM; `COc1ccc(-n2c(SCC(=O)c3ccc(O)c(O)c3)nnc2-c2ccc(C)cc2)cc1`: 4.7 µM.
Same read-out and setting: as for `O=C(CSc1nnc(-c2ccc(Cl)cc2)n1-c1ccccc1)c1ccc(O)c(O)c1`, the figure is 1.6 µM.
Still for that read-out and setting: as for `O=C1N=C(Nc2cccc(Br)c2)S/C1=C\C=C\c1ccco1`, the figure is 2.7 µM; as for `Cn1c(SCC(=O)c2ccc([N+](=O)[O-])cc2)nnc1-c1cccc(NC(=O)c2ccccc2F)c1`, 5.4 µM; as for `CC(=C/c1ccccc1)/C=C1\SC(Nc2cccc(Cl)c2)=NC1=O`, 3.3 µM.
As to `CC(=C/c1ccccc1)/C=C1\SC(Nc2ccc(C)c(C)c2)=NC1=O`, the IC50 was determined as 2.3 µM.
Still for that read-out and setting: next, `O=C1N=C(Nc2cccc(O)c2)S/C1=C\c1cccs1`: 2.8 µM.
`CC(=C/c1ccccc1)/C=C1\SC(Nc2ccccc2Cl)=NC1=O` showed a concentration for half-maximal inhibition (IC50) of 3.9 µM.
The compound `Cc1ccc(-c2nnc(SCC(=O)c3ccc(O)c(O)c3)n2Cc2ccco2)cc1` registered a concentration for half-maximal inhibition (IC50) of 2.3 µM.
Still for that read-out and setting: as for `CC(=C/c1ccccc1)/C=C1\SC(Nc2cc(Cl)cc(Cl)c2)=NC1=O`, the figure is 1.2 µM; as for `O=C1N=C(Nc2ccc(Cl)cc2)S/C1=C\c1cccs1`, 4.4 µM; as for `COc1ccc(-c2nnc(SCC(=O)c3ccc(O)c(O)c3)n2-c2ccccc2)cc1`, 1.7 µM.
The compound `O=C1N=C(Nc2cc(Cl)cc(Cl)c2)S/C1=C\c1c[nH]c2ccccc12` displayed an IC50 of 2.3 µM.
For `Cn1c(SCC(=O)c2ccc(-c3ccccc3)cc2)nnc1-c1ccncc1`, the IC50 was determined as 4.2 µM.
Still for that read-out and setting: as for `Cn1c(SCC(=O)c2ccc([N+](=O)[O-])cc2)nnc1-c1cccc(Cl)c1`, the figure is 4.4 µM; as for `Cc1ccc(-c2nnc(SCC(=O)c3ccc(O)c(O)c3)n2-c2ccccc2)cc1`, 2.5 µM.
Turning to `Cn1cccc1/C=C1\SC(Nc2ccc(F)cc2)=NC1=O`, half-maximal inhibition (IC50) required 3.7 µM.
On the same count and under the same terms, as for `Cn1c(SCC(=O)c2ccc(-c3ccccc3)cc2)nnc1-c1ccco1`, the figure is 2 µM; as for `O=C1N=C(Nc2ccccc2Cl)S/C1=C\C=C\c1ccco1`, 2.1 µM.
With `CCn1c(SCC(=O)c2ccc(Cl)cc2)nnc1-c1cccnc1`, the IC50 was determined as 6 µM.
Same read-out and setting: next, `C=Cn1c(SCC(=O)c2ccc(Cl)cc2)nnc1-c1ccco1`: 5.2 µM; `Cn1cccc1/C=C1\SC(Nc2ccc(Cl)cc2)=NC1=O`: 3.1 µM.
`O=C1N=C(Nc2cccc(Cl)c2)S/C1=C\C=C\c1ccco1` gave a concentration for half-maximal inhibition (IC50) of 3.2 µM.
On the same count and under the same terms, as for `CC(=C/c1ccccc1)/C=C1\SC(Nc2ccc(Br)cc2)=NC1=O`, the figure is 5.1 µM.
Still for that read-out and setting: next, `O=C1N=C(Nc2cccc(Cl)c2Cl)S/C1=C\C=C\c1ccco1`: 2.1 µM.

Values taken from ChEMBL document CHEMBL1153036, “Structure-based de novo design and biochemical evaluation of novel Cdc25 phosphatase inhibitors” (Bioorg Med Chem Lett, 2009).
